Patent publication US11019818B2, “Herbicidal 3-substituted lactams” (FMC Corporation, priority 2017, dated 2021)

Tests used:
Format in all cases: in vivo
[1] = system: ragweed (common ragweed, Ambrosia elatior); test: Test A preemergence, ragweed; conditions: 0 to 100 scale (0 no effect, 100 complete control), approx. 10 d
Description: (§1) Seeds of plant species selected from barnyardgrass (Echinochloa crus-galli), kochia (Kochia scoparia), ragweed (common ragweed, Ambrosia elatior), ryegrass, Italian (Italian ryegrass, Lolium multiflorum), foxtail, green (green foxtail, Setaria viridis), and pigweed (Amaranthus retroflexus) were planted into a blend of loam soil and sand and treated preemergence with a directed soil spray using test chemicals formulated in a non-phytotoxic solvent mixture which included a surfactant. At the same time, plants selected from these weed species and also wheat (Triticum aestivum), corn (Zea mays), blackgrass (Alopecurus myosuroides), and galium (catchweed bedstraw, Galium aparine) were planted in pots containing the same blend of loam soil and sand and treated with postemergence applications of test chemicals formulated in the same manner. Plants ranged in height from 2 to 10 cm and were in the one- to two-leaf stage for the postemergence treatment. Treated plants and untreated controls were maintained in a greenhouse for approximately 10 d, after which time all treated plants were compared to untreated controls and visually evaluated for injury. Plant response ratings, summarized in Table A, are based on a 0 to 100 scale where 0 is no effect and 100 is complete control. A dash (-) response means no test result.

[2] = system: barnyardgrass (Echinochloa crus-galli); test: Test A postemergence, barnyardgrass; conditions: 0 to 100 scale (0 no effect, 100 complete control), approx. 10 d
Description: as §1

[3] = system: foxtail, green (green foxtail, Setaria viridis); test: Test A preemergence, green foxtail; conditions: 0 to 100 scale (0 no effect, 100 complete control), approx. 10 d
Description: as §1

[4] = system: sedge, umbrella (small-flower umbrella sedge, Cyperus difformis); test: Test B flooded paddy test, umbrella sedge; conditions: Flood, 250 g ai/ha; applied to paddy water at 2-leaf stage; visual rating after 13 to 15 d; scale 0 to 100, 0 is no effect, 100 is complete control
Experimental: (§2) Plant species in the flooded paddy test selected from rice (Oryza sativa), sedge, umbrella (small-flower umbrella sedge, Cyperus difformis), ducksalad (Heteranthera limosa), and barnyardgrass (Echinochloa crus-galli) were grown to the 2-leaf stage for testing. At time of treatment, test pots were flooded to 3 cm above the soil surface, treated by application of test compounds directly to the paddy water, and then maintained at that water depth for the duration of the test. Treated plants and controls were maintained in a greenhouse for 13 to 15 d, after which time all species were compared to controls and visually evaluated. Plant response ratings, summarized in Table B, are based on a scale of 0 to 100 where 0 is no effect and 100 is complete control. A dash (-) response means no test result.

[5] = system: foxtail, green (green foxtail, Setaria viridis); test: Test A postemergence, green foxtail; conditions: 0 to 100 scale (0 no effect, 100 complete control), approx. 10 d
Description: as §1

kochia (Kochia scoparia) [6] = test: Test A postemergence, kochia; conditions: 0 to 100 scale (0 no effect, 100 complete control), approx. 10 d
Description: as §1

[7] = system: pigweed (Amaranthus retroflexus); test: Test A postemergence, pigweed; conditions: 0 to 100 scale (0 no effect, 100 complete control), approx. 10 d
Description: as §1

[8] = system: ducksalad (Heteranthera limosa); test: Test B flooded paddy test, ducksalad; conditions: Flood, 250 g ai/ha; applied to paddy water at 2-leaf stage; visual rating after 13 to 15 d; scale 0 to 100, 0 is no effect, 100 is complete control
Experimental: as §2

[9] = system: blackgrass (Alopecurus myosuroides); test: Test A postemergence, blackgrass; conditions: 0 to 100 scale (0 no effect, 100 complete control), approx. 10 d
Description: as §1

[10] = system: pigweed (Amaranthus retroflexus); test: Test A preemergence, pigweed; conditions: 0 to 100 scale (0 no effect, 100 complete control), approx. 10 d
Description: as §1

corn (Zea mays) = test: Test A postemergence, corn; conditions: 0 to 100 scale (0 no effect, 100 complete control), approx. 10 d
Description: as §1

[11] = system: barnyardgrass (Echinochloa crus-galli); test: Test B flooded paddy test, barnyardgrass; conditions: Flood, 250 g ai/ha; applied to paddy water at 2-leaf stage; visual rating after 13 to 15 d; scale 0 to 100, 0 is no effect, 100 is complete control
Experimental: as §2

[12] = system: ragweed (common ragweed, Ambrosia elatior); test: Test A postemergence, ragweed; conditions: 0 to 100 scale (0 no effect, 100 complete control), approx. 10 d
Description: as §1

[13] = system: wheat (Triticum aestivum); test: Test A postemergence, wheat; conditions: 0 to 100 scale (0 no effect, 100 complete control), approx. 10 d
Description: as §1

rice (Oryza sativa) = test: Test B flooded paddy test, rice; conditions: Flood, 250 g ai/ha; applied to paddy water at 2-leaf stage; visual rating after 13 to 15 d; scale 0 to 100, 0 is no effect, 100 is complete control
Experimental: as §2

kochia (Kochia scoparia) [14] = test: Test A preemergence, kochia; conditions: 0 to 100 scale (0 no effect, 100 complete control), approx. 10 d
Description: as §1

[15] = system: ryegrass, Italian (Italian ryegrass, Lolium multiflorum); test: Test A preemergence, Italian ryegrass; conditions: 0 to 100 scale (0 no effect, 100 complete control), approx. 10 d
Description: as §1

[16] = system: barnyardgrass (Echinochloa crus-galli); test: Test A preemergence, barnyardgrass; conditions: 0 to 100 scale (0 no effect, 100 complete control), approx. 10 d
Description: as §1

[17] = system: ryegrass, Italian (Italian ryegrass, Lolium multiflorum); test: Test A postemergence, Italian ryegrass; conditions: 0 to 100 scale (0 no effect, 100 complete control), approx. 10 d
Description: as §1

[18] = system: galium (catchweed bedstraw, Galium aparine); test: Test A postemergence, galium; conditions: 0 to 100 scale (0 no effect, 100 complete control), approx. 10 d
Description: as §1

CN1C[C@H](c2ccc(C(F)(F)F)cc2)[C@](CO)(C(=O)Nc2cccc(F)c2F)C1=O [Compound 4, (3S,4R)—N-(2,3-difluorophenyl)-3-(hydroxymethyl)-1-methyl-2-oxo-4-[4-(trifluoromethyl)phenyl]-3-pyrrolidinecarboxamide]
Plant response rating, Ragweed ([1]; 31 g ai/ha): 0
Plant response rating, Ragweed ([1]; 125 g ai/ha): 0
Plant response rating, Barnyardgrass ([2]; 31 g ai/ha): 0
Plant response rating, Barnyardgrass ([2]; 125 g ai/ha): 60
Plant response rating, Foxtail, Green ([3]; 31 g ai/ha): 50
Plant response rating, Foxtail, Green ([3]; 125 g ai/ha): 90
Plant response rating, Sedge, Umbrella [4]: 0
Plant response rating, Foxtail, Green ([5]; 31 g ai/ha): 10
Plant response rating, Foxtail, Green ([5]; 125 g ai/ha): 60
Plant response rating, Kochia (kochia (Kochia scoparia) [6]; 31 g ai/ha): 0
Plant response rating, Kochia (kochia (Kochia scoparia) [6]; 125 g ai/ha): 60
Plant response rating, Pigweed ([7]; 31 g ai/ha): 30
Plant response rating, Pigweed ([7]; 125 g ai/ha): 70
Plant response rating, Ducksalad [8]: 95
Plant response rating, Blackgrass ([9]; 31 g ai/ha): 0
Plant response rating, Blackgrass ([9]; 125 g ai/ha): 40
Plant response rating, Pigweed ([10]; 31 g ai/ha): 0
Plant response rating, Pigweed ([10]; 125 g ai/ha): 90
Plant response rating, Corn (corn (Zea mays); 31 g ai/ha): 0
Plant response rating, Corn (corn (Zea mays); 125 g ai/ha): 50
Plant response rating, Barnyardgrass [11]: 50
Plant response rating, Ragweed ([12]; 31 g ai/ha): 0
Plant response rating, Ragweed ([12]; 125 g ai/ha): 0
Plant response rating, Wheat ([13]; 31 g ai/ha): 0
Plant response rating, Wheat ([13]; 125 g ai/ha): 20
Plant response rating, Rice (rice (Oryza sativa)): 0
Plant response rating, Kochia (kochia (Kochia scoparia) [14]; 31 g ai/ha): 0
Plant response rating, Kochia (kochia (Kochia scoparia) [14]; 125 g ai/ha): 40
Plant response rating, Ryegrass, Italian ([15]; 31 g ai/ha): 0
Plant response rating, Ryegrass, Italian ([15]; 125 g ai/ha): 50
Plant response rating, Barnyardgrass ([16]; 31 g ai/ha): 30
Plant response rating, Barnyardgrass ([16]; 125 g ai/ha): 90
Plant response rating, Ryegrass, Italian ([17]; 31 g ai/ha): 0
Plant response rating, Ryegrass, Italian ([17]; 125 g ai/ha): 50
Plant response rating, Galium ([18]; 31 g ai/ha): 20
Plant response rating, Galium ([18]; 125 g ai/ha): 40

CN1C[C@H](c2ccc(C(F)(F)F)cc2)[C@@](CO)(C(=O)Nc2cccc(F)c2F)C1=O [Compound 5, (3R,4R)—N-(2,3-difluorophenyl)-3-(hydroxymethyl)-1-methyl-2-oxo-4-[4-(trifluoromethyl)phenyl]-3-pyrrolidinecarboxamide]
Plant response rating, Ragweed ([1]; 31 g ai/ha): 0
Plant response rating, Ragweed ([1]; 125 g ai/ha): 60
Plant response rating, Barnyardgrass ([2]; 31 g ai/ha): 30
Plant response rating, Barnyardgrass ([2]; 125 g ai/ha): 80
Plant response rating, Foxtail, Green ([3]; 31 g ai/ha): 70
Plant response rating, Foxtail, Green ([3]; 125 g ai/ha): 90
Plant response rating, Sedge, Umbrella [4]: 0
Plant response rating, Foxtail, Green ([5]; 31 g ai/ha): 30
Plant response rating, Foxtail, Green ([5]; 125 g ai/ha): 80
Plant response rating, Kochia (kochia (Kochia scoparia) [6]; 31 g ai/ha): 30
Plant response rating, Kochia (kochia (Kochia scoparia) [6]; 125 g ai/ha): 70
Plant response rating, Pigweed ([7]; 31 g ai/ha): 30
Plant response rating, Pigweed ([7]; 125 g ai/ha): 50
Plant response rating, Ducksalad [8]: 90
Plant response rating, Blackgrass ([9]; 31 g ai/ha): 0
Plant response rating, Blackgrass ([9]; 125 g ai/ha): 30
Plant response rating, Pigweed ([10]; 31 g ai/ha): 0
Plant response rating, Pigweed ([10]; 125 g ai/ha): 60
Plant response rating, Corn (corn (Zea mays); 31 g ai/ha): 0
Plant response rating, Corn (corn (Zea mays); 125 g ai/ha): 60
Plant response rating, Barnyardgrass [11]: 65
Plant response rating, Ragweed ([12]; 31 g ai/ha): 0
Plant response rating, Ragweed ([12]; 125 g ai/ha): 40
Plant response rating, Wheat ([13]; 31 g ai/ha): 0
Plant response rating, Wheat ([13]; 125 g ai/ha): 30
Plant response rating, Rice (rice (Oryza sativa)): 25
Plant response rating, Kochia (kochia (Kochia scoparia) [14]; 31 g ai/ha): 0
Plant response rating, Kochia (kochia (Kochia scoparia) [14]; 125 g ai/ha): 60
Plant response rating, Ryegrass, Italian ([15]; 31 g ai/ha): 10
Plant response rating, Ryegrass, Italian ([15]; 125 g ai/ha): 80
Plant response rating, Barnyardgrass ([16]; 31 g ai/ha): 80
Plant response rating, Barnyardgrass ([16]; 125 g ai/ha): 90
Plant response rating, Ryegrass, Italian ([17]; 31 g ai/ha): 20
Plant response rating, Ryegrass, Italian ([17]; 125 g ai/ha): 50
Plant response rating, Galium ([18]; 31 g ai/ha): 40
Plant response rating, Galium ([18]; 125 g ai/ha): 40
